The assay concerns the target T1, KCNQ2/3 channels (Homo sapiens, UniProt O43525+O43526).
T1 construct: expressed in transfected cells
Put plainly: Fluorescence assay using a voltage sensitive dye (fluorimetry). It counts as cell-based. To be noted: CHO-K1 cells expressing KCNQ2/3; for Emax: CHO-K1, plateau effect relative to saturated retigabine (50 μM) = 100%, negative values = antagonistic, read-out: Fluorimetry % efficacy (retigabine = 100%); for pEC50: IC50 where % efficacy is negative, read-out: Fluorimetry EC50/IC50.

The text below walks through data of US9168259B2 (GRÜNENTHAL GMBH, priority 2010, dated 2015).

pEC50: −log10 of the molar value.

T1 sequence (O43526 whole entry): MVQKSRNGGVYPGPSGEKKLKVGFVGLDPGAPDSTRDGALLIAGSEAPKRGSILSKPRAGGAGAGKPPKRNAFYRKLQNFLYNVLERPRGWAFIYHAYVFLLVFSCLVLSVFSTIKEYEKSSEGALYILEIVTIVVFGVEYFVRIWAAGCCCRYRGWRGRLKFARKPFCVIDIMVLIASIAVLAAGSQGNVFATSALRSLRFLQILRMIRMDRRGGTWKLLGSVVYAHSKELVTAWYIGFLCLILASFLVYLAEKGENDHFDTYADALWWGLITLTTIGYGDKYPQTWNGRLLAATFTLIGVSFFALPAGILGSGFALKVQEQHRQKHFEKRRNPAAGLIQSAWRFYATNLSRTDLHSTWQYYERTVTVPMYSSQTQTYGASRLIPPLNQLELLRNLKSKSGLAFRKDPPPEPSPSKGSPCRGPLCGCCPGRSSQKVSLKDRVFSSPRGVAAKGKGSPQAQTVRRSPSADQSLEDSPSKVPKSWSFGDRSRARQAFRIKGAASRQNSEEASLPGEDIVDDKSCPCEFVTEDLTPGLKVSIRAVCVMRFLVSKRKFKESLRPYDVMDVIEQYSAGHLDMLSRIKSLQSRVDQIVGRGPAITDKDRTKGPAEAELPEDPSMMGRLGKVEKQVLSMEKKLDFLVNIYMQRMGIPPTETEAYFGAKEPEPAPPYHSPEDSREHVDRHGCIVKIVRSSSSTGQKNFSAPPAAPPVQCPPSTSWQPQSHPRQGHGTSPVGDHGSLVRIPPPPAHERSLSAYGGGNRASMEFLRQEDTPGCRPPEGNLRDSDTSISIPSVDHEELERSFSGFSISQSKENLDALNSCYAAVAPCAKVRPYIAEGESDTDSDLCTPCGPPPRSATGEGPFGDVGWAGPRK
T1 sequence (O43525 whole entry): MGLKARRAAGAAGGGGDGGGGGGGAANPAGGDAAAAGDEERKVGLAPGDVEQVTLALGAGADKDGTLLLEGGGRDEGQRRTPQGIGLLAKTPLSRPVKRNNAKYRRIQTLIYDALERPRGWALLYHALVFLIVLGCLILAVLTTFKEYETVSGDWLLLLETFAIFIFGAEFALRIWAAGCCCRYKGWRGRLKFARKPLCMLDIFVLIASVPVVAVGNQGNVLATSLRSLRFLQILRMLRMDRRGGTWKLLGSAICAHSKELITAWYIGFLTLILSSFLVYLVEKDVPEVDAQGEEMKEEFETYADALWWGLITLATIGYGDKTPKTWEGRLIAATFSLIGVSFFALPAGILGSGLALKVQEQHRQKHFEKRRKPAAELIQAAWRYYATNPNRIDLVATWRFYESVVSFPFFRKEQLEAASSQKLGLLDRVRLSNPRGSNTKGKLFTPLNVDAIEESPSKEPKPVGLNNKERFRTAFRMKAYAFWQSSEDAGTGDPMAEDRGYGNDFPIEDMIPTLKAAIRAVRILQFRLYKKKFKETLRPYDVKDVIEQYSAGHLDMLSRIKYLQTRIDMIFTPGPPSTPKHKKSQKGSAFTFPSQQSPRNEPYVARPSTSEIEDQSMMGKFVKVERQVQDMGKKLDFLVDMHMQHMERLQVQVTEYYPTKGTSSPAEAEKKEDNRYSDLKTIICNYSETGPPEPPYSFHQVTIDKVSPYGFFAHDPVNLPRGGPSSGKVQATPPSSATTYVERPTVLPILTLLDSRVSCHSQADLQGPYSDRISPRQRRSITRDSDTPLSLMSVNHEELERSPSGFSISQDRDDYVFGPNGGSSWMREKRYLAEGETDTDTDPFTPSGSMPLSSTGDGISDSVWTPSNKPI

For the compound `COc1nc(N2CCOCC2)cc(C)c1C(=O)NCCCC(F)(F)F` [Example 140, 2-Methoxy-4-methyl-6-morpholin-4-yl-N-(4,4,4-trifluoro-butyl)-pyridine-3-carboxylic acid amide], the Emax worked out at 227% and the pEC50 was 5.95.

For `CCSc1nc(N2CCC(=O)CC2)cc(C)c1C(=O)NCc1cccc(F)c1` [Example 16, 2-Ethylsulfanyl-N-[(3-fluorophenyl)-methyl]-4-methyl-6-(4-oxo-piperidin-1-yl)-pyridine-3-carboxylic acid amide], the Emax is 149% and the pEC50 was 5.60.

Consider `Cc1cc(N2CCOC[C@H]2C)nc(C2CC2)c1C(=O)NCCCC(C)(C)C` [Example 198, 2-Cyclopropyl-N-(4,4-dimethyl-pentyl)-4-methyl-6-[(3R)-3-methyl-morpholin-4-yl]-pyridine-3-carboxylic acid amide], for which the Emax was 246% and the pEC50 is 7.72.

Take `CCSc1nc(N2CCOCC2)cc(C)c1C(=O)NCc1ccc(OC)cc1` [Example 137, 2-Ethylsulfanyl-N-[(4-methoxyphenyl)-methyl]-4-methyl-6-morpholin-4-yl-pyridine-3-carboxylic acid amide]: the Emax was 151% and the pEC50 was 5.97.

On to `CCOc1nc(N2CCOCC2)cc(C)c1C(=O)NCc1ccccc1-c1ccccc1` [Example 92, 2-Ethoxy-4-methyl-6-morpholin-4-yl-N-[(2-phenyl-phenyl)-methyl]-pyridine-3-carboxylic acid amide], for which the Emax is -79% and the pEC50 is 6.89.

Take `CCOc1nc(N2CCOCC2)cc(C)c1C(=O)NCc1ccc(C(F)(F)F)cc1` [Example 132, 2-Ethoxy-4-methyl-6-morpholin-4-yl-N-[[4-(trifluoromethyl)-phenyl]-methyl]pyridine-3-carboxylic acid amide]: the Emax is 122% and the pEC50 is 6.96.

In the case of `CCSc1nc(N2CCOCC2)cc(C)c1C(=O)NCc1cccc(C)c1` [Example 164, 2-Ethylsulfanyl-4-methyl-6-morpholin-4-yl-N-(m-tolyl-methyl)-pyridine-3-carboxylic acid amide], the Emax turned out to be 122% and the pEC50 is 6.63.

For `CCN(C)c1nc(N2CCOC[C@H]2C)cc(C)c1C(=O)NCc1ccc(F)cc1` [Example 173, 2-(Ethyl-methyl-amino)-N-[(4-fluorophenyl)-methyl]-4-methyl-6-[(3R)-3-methyl-morpholin-4-yl]-pyridine-3-carboxylic acid amide], the Emax stood at 259% and the pEC50 is 6.70.

Take `COC[C@@H]1CN(c2cc(C)c(C(=O)NCc3ccc(Cl)cc3)c(C3CC3)n2)CCO1` [Example 290, N-[(4-Chlorophenyl)-methyl]-2-cyclopropyl-6-[(2S)-2-(methoxymethyl)-morpholin-4-yl]-4-methyl-pyridine-3-carboxylic acid amide]: the Emax turned out to be 136% and the pEC50 was 6.50.

`COc1nc(N2CCOC[C@H]2C)cc(C)c1C(=O)NCCCC(F)(F)F` [Example 236, 2-Methoxy-4-methyl-6-[(3R)-3-methyl-morpholin-4-yl]-N-(4,4,4-trifluoro-butyl)-pyridine-3-carboxylic acid amide]: the Emax came to 227% and the pEC50 was 6.33.

Take `CCN(C)c1nc(N2CCOCC2)cc(C)c1C(=O)NCCCC(F)(F)F` [Example 190, 2-(Ethyl-methyl-amino)-4-methyl-6-morpholin-4-yl-N-(4,4,4-trifluoro-butyl)-pyridine-3-carboxylic acid amide]: the Emax was determined as 207% and the pEC50 was 5.60.

For `CCSc1nc(N2CCOCC2)cc(C)c1C(=O)NCCCC1(C)CC1` [Example 350, 2-Ethylsulfanyl-4-methyl-N-[3-(1-methyl-cyclopropyl)-propyl]-6-morpholin-4-yl-pyridine-3-carboxylic acid amide], the Emax is 226% and the pEC50 was 7.10.

For `CCSc1nc(N(C)c2cccnc2)cc(C)c1C(=O)NCc1cccc(F)c1` [Example 171, 2-Ethylsulfanyl-N-[(3-fluorophenyl)-methyl]-4-methyl-6-(methyl-pyridin-3-yl-amino)-pyridine-3-carboxylic acid amide], the Emax came out at 62% and the pEC50 was 5.71.

Regarding `CCOc1nc(N2CCOCC2)cc(C)c1C(=O)NCCCC(C)(C)C` [Example 89, N-(4,4-Dimethyl-pentyl)-2-ethoxy-4-methyl-6-morpholin-4-yl-pyridine-3-carboxylic acid amide], the Emax amounted to 268% and the pEC50 was 6.86.

As to `CCCCCNC(=O)c1c(C)cc(N2CCOCC2)nc1SCC` [Example 81, 2-Ethylsulfanyl-4-methyl-6-morpholin-4-yl-N-pentyl-pyridine-3-carboxylic acid amide], the Emax turned out to be 163% and the pEC50 is 6.18.

As to `CCSc1nc(N2CCO[C@@H](CO)C2)cc(C)c1C(=O)NCc1cccc(F)c1` [Example 292, 2-Ethylsulfanyl-N-[(3-fluorophenyl)-methyl]-6-[(2R)-2-(hydroxymethyl)-morpholin-4-yl]-4-methyl-pyridine-3-carboxylic acid amide], the Emax stood at 32%.

For `Cc1cc(N2CCOCC2)nc(C(C)C)c1C(=O)NCc1cccc(F)c1` [Example 23, N-[(3-Fluorophenyl)-methyl]-2-isopropyl-4-methyl-6-morpholin-4-yl-pyridine-3-carboxylic acid amide], the Emax is 182% and the pEC50 is 6.95.

With `CCCc1nc(N2CCOCC2)cc(C)c1C(=O)NCc1ccc(C(F)(F)F)cc1` [Example 323, 4-Methyl-6-morpholin-4-yl-2-propyl-N-[[4-(trifluoromethyl)-phenyl]-methyl]pyridine-3-carboxylic acid amide], the Emax was determined as 130% and the pEC50 is 6.99.

As for `CCSc1nc(N2CCOCC2)cc(C)c1C(=O)NCc1cccc(COC)c1` [Example 131, 2-Ethylsulfanyl-N-[[3-(methoxymethyl)-phenyl]-methyl]-4-methyl-6-morpholin-4-yl-pyridine-3-carboxylic acid amide], the Emax amounted to 137% and the pEC50 is 5.90.

Consider `CCSc1nc(N(C)C2CCOC2)cc(C)c1C(=O)NCCCC(C)(C)C` (stereo not drawn) [Example 218, N-(4,4-Dimethyl-pentyl)-2-ethylsulfanyl-4-methyl-6-(methyl-tetrahydro-furan-3-yl-amino)-pyridine-3-carboxylic acid amide], for which the Emax was 194% and the pEC50 was 6.57.

Take `CCSc1nc(N2CCOCC2)cc(C)c1C(=O)NCCC(C)(C)C` [Example 104, N-(3,3-Dimethyl-butyl)-2-ethylsulfanyl-4-methyl-6-morpholin-4-yl-pyridine-3-carboxylic acid amide]: the Emax was 100% and the pEC50 was 5.85.

As to `Cc1cc(N2CCOCC2)nc(SCC(C)C)c1C(=O)NCc1cccc(F)c1` [Example 62, N-[(3-Fluorophenyl)-methyl]-4-methyl-2-(2-methyl-propylsulfanyl)-6-morpholin-4-yl-pyridine-3-carboxylic acid amide], the Emax worked out at 164% and the pEC50 was 7.33.

Consider `Cc1cc(N2CCOCC2)nc(C2CC2)c1C(=O)NCCC(O)C(C)(C)C` (racemic) [Example X1, 2-Cyclopropyl-N-(3-hydroxy-4,4-dimethyl-pentyl)-4-methyl-6-morpholin-4-yl-pyridine-3-carboxylic acid amide], for which the pEC50 is 6.28.

In the case of `Cc1cc(N2CCOCC2)nc(N2CCOCC2)c1C(=O)NCc1cccc(F)c1` [Example 12, N-[(3-Fluorophenyl)-methyl]-4-methyl-2,6-dimorpholin-4-yl-pyridine-3-carboxylic acid amide], the Emax came to 210% and the pEC50 is 5.70.

For `CCSc1nc(N(C)CC2CCOCC2)cc(C)c1C(=O)NCc1cccc(F)c1` [Example 61, 2-Ethylsulfanyl-N-[(3-fluorophenyl)-methyl]-4-methyl-6-[methyl-(tetrahydro-pyran-4-yl-methyl)-amino]-pyridine-3-carboxylic acid amide], the Emax was determined as 110% and the pEC50 is 6.28.

For `COc1nc(N2CCOC[C@H]2C)cc(C)c1C(=O)NCc1cccc(F)c1` [Example 214, N-[(3-Fluorophenyl)-methyl]-2-methoxy-4-methyl-6-[(3R)-3-methyl-morpholin-4-yl]-pyridine-3-carboxylic acid amide], the Emax stood at 194% and the pEC50 was 6.65.

In the case of `CCSc1nc(N2CCOCC2)cc(C)c1C(=O)NCc1ccc(S(C)(=O)=O)cc1` [Example 247, 2-Ethylsulfanyl-4-methyl-N-[(4-methylsulfonyl-phenyl)-methyl]-6-morpholin-4-yl-pyridine-3-carboxylic acid amide], the Emax was determined as 38%.

With `CCSc1nc(N2CCO[C@@H](C)C2)cc(C)c1C(=O)NCc1cccc(F)c1` [Example 138, 2-Ethylsulfanyl-N-[(3-fluorophenyl)-methyl]-4-methyl-6-[(2S)-2-methyl-morpholin-4-yl]-pyridine-3-carboxylic acid amide], the Emax came to 125% and the pEC50 is 6.77.

As for `Cc1cc(N2CCOC[C@H]2C)nc(N(C)C)c1C(=O)NCc1ccc(F)cc1` [Example 172, 2-Dimethylamino-N-[(4-fluorophenyl)-methyl]-4-methyl-6-[(3R)-3-methyl-morpholin-4-yl]-pyridine-3-carboxylic acid amide], the Emax was found to be 246% and the pEC50 is 6.42.

`Cc1cc(N2CCOC[C@H]2C)nc(C(C)C)c1C(=O)NCc1ccc(F)cc1` [Example 169, N-[(4-Fluorophenyl)-methyl]-2-isopropyl-4-methyl-6-[(3R)-3-methyl-morpholin-4-yl]-pyridine-3-carboxylic acid amide]: the Emax worked out at 197% and the pEC50 is 7.62.
